The results in this text go back to PubChem BioAssay (NCI).

Several values for one entry are separate records, joined by “and”; a condition that tells them apart may be missing. Equal entries are not always repeated.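 Values below derive from 48-hour exposures of cells grown in 96-well plates, with endpoints linearly interpolated between the two concentrations bracketing the appropriate inhibition level. The concentration for 50% growth inhibition is given as GI50. TGI: concentration producing complete growth inhibition.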

Among the test systems are SF-539 CNS; DMS 114 small cell lung; DLD-1 colon; HOP-92 NSCLC; XF 498 CNS; LXFL 529 NSCLC; M19-MEL melanoma; KM20L2 colon; PC-3 prostate; HS 578T breast.
Test in all cases: NCI anticancer screen, dose series, 48 h

Turning to `C/C(=N\NC(=O)c1ccccc1O)c1cccc(/C(C)=N/NC(=O)c2ccccc2O)n1`, the GI50 with SF-539 CNS is 5.96 µM and 0.918 µM; in the assay with DLD-1 colon, 2.62 µM; with HOP-92 NSCLC, 0.908 µM; in the assay with M19-MEL melanoma, 11.5 µM; with KM20L2 colon, 1.13 µM; with PC-3 prostate it was 0.626 µM. In the assay with HS 578T breast, the GI50 is greater than 100 µM. Besides, the TGI is 23.3 µM and > 100 µM with SF-539 CNS; 36.9 µM in the assay on DMS 114 small cell lung; greater than 100 µM in the assay with DLD-1 colon; 67.3 µM and 36.8 µM in the assay on HOP-92 NSCLC; 46.7 µM in the assay on XF 498 CNS; 53.1 µM in the assay on LXFL 529 NSCLC. The TGI with M19-MEL melanoma was greater than 74 µM; in the assay on KM20L2 colon it was greater than 100 µM; in the assay on PC-3 prostate, greater than 100 µM; in the assay with HS 578T breast, greater than 100 µM.
As for `COc1cc2c(c(OC)c1OC)-c1ccc(SC)c(=O)cc1[C@@H](NCc1cccc(C#N)c1)CC2`, the GI50 with SF-539 CNS, with DMS 114 small cell lung, in the assay on DLD-1 colon, in the assay with HOP-92 NSCLC, in the assay on XF 498 CNS and in the assay with LXFL 529 NSCLC was less than 0.0075 µM in each case. Besides, the GI50 in the assay on M19-MEL melanoma and with KM20L2 colon was less than 0.0075 µM throughout. Besides, the TGI was 0.0354 µM and < 0.0075 µM in the assay on SF-539 CNS; 0.0347 µM and < 0.0075 µM in the assay on DMS 114 small cell lung; greater than 75 µM in the assay with DLD-1 colon; greater than 75 µM in the assay on HOP-92 NSCLC; less than 0.0075 µM in the assay on XF 498 CNS; greater than 75 µM in the assay with LXFL 529 NSCLC. The TGI with M19-MEL melanoma is 42.4 µM; in the assay with KM20L2 colon, 0.0302 µM and < 0.0075 µM.
Consider `CC(C)(C)OC(=O)NC1CCC[C@H]1O` (stereo partly drawn), for which the TGI in the assay on SF-539 CNS, in the assay on DMS 114 small cell lung, in the assay with DLD-1 colon, in the assay with HOP-92 NSCLC, in the assay with XF 498 CNS and in the assay on LXFL 529 NSCLC was greater than 100 µM in each case. Moreover, the TGI with M19-MEL melanoma and in the assay with KM20L2 colon was greater than 100 µM in each case.
Turning to `CCc1ccc(Nc2cc(=O)[nH]c(=S)n2C)cc1`, the TGI in the assay on SF-539 CNS, in the assay with DMS 114 small cell lung, in the assay with DLD-1 colon, in the assay with HOP-92 NSCLC, with XF 498 CNS and in the assay on LXFL 529 NSCLC was greater than 100 µM throughout. Further, the TGI with M19-MEL melanoma and with KM20L2 colon was greater than 100 µM in each case.
In the case of `CC(=O)OC1C/C(C)=C/CCC(C)/C=C/C2(C)CCC(C(C)(C)O)C12` (stereo not drawn), the TGI in the assay with SF-539 CNS is greater than 100 µM; in the assay on DMS 114 small cell lung, greater than 100 µM; in the assay on DLD-1 colon, greater than 100 µM; with HOP-92 NSCLC it was 51.4 µM; with XF 498 CNS it was greater than 100 µM; with LXFL 529 NSCLC it was greater than 100 µM. For the same molecule, the TGI in the assay on M19-MEL melanoma was 88.6 µM; with KM20L2 colon, greater than 100 µM.
`CC(=O)Nc1ccccc1-c1cnc2ccccc2n1`: the TGI in the assay with SF-539 CNS, with DMS 114 small cell lung, in the assay on DLD-1 colon, in the assay on HOP-92 NSCLC, with XF 498 CNS and with LXFL 529 NSCLC was greater than 100 µM throughout. In addition, the TGI in the assay with M19-MEL melanoma and in the assay with KM20L2 colon was greater than 100 µM throughout.
As to `CC(=O)OCC1OC(n2c(=O)n(-c3ccccc3)c(=O)c3cc(Br)cc(Br)c32)C(OC(C)=O)C(OC(C)=O)C1OC(C)=O` (stereo not drawn), the TGI with SF-539 CNS, in the assay on DMS 114 small cell lung, with DLD-1 colon, in the assay with HOP-92 NSCLC, in the assay with XF 498 CNS and with LXFL 529 NSCLC was greater than 100 µM each time. In addition, the TGI in the assay with M19-MEL melanoma and with KM20L2 colon was greater than 100 µM in each case.
`CCOC(=O)C(=Cc1cc(OC)ccc1OC)C(=O)OCC`: the TGI in the assay on SF-539 CNS worked out at 15.1 µM; in the assay on DMS 114 small cell lung, 11.8 µM; in the assay on DLD-1 colon, 21.8 µM; with HOP-92 NSCLC it was 17 µM; with XF 498 CNS it was 23.6 µM; in the assay on LXFL 529 NSCLC, 12.2 µM. The TGI with M19-MEL melanoma stood at 17.9 µM; in the assay on KM20L2 colon, 17.5 µM.
`Cc1ccc2c(c1)SC(c1cc3c(cc1Br)OCO3)S2` (stereo not drawn): the TGI with SF-539 CNS was greater than 31.6 µM; in the assay with DMS 114 small cell lung it was greater than 31.6 µM; with DLD-1 colon, greater than 31.6 µM; with HOP-92 NSCLC it was greater than 31.6 µM; with XF 498 CNS, greater than 100 µM; in the assay with LXFL 529 NSCLC, greater than 31.6 µM. Also, the TGI in the assay with M19-MEL melanoma and in the assay with KM20L2 colon was greater than 31.6 µM each time.
`COc1cc([C@@H]2c3cc4c(cc3[C@@H](NCc3ccccc3)C3COC(=O)[C@@H]32)OCO4)cc(OC)c1O` (stereo partly drawn): the TGI with SF-539 CNS is 26.7 µM; with DMS 114 small cell lung, greater than 64.5 µM; in the assay on DLD-1 colon, greater than 100 µM; with HOP-92 NSCLC it was 37.9 µM; with XF 498 CNS, 41 µM; in the assay on LXFL 529 NSCLC it was greater than 100 µM. Moreover, the TGI is greater than 100 µM with M19-MEL melanoma and 85.6 µM with KM20L2 colon.
`Cc1ccc(C2(O)CC(c3ccc([N+](=O)[O-])o3)=NN2C(=O)COc2ccccc2Cl)cc1` (stereo not drawn): the TGI is 48.4 µM in the assay with SF-539 CNS; 80.7 µM in the assay with DMS 114 small cell lung; greater than 100 µM with DLD-1 colon; greater than 95.3 µM in the assay with HOP-92 NSCLC; greater than 100 µM with XF 498 CNS; 49.2 µM with LXFL 529 NSCLC. Moreover, the TGI with M19-MEL melanoma was 33.5 µM; in the assay on KM20L2 colon, greater than 60 µM.
Consider `O=C1[C@@H]2C3SC(c4ccccc43)[C@@H]2C(=O)N1c1ccccc1`, for which the TGI in the assay with SF-539 CNS, with DMS 114 small cell lung, in the assay with DLD-1 colon, with HOP-92 NSCLC, with XF 498 CNS and in the assay with LXFL 529 NSCLC was greater than 100 µM throughout. The TGI in the assay with M19-MEL melanoma and in the assay on KM20L2 colon was greater than 100 µM in each case.
